In ChEMBL document CHEMBL1143652, “Joys of molecules. 2. Endeavors in chemical biology and medicinal chemistry” (J Med Chem, 2005) one finds EC50 data, which are given here for one molecule.

Test [1] concerns P388. The test can be described thus: Cytotoxicity against P-388 cancer cell line. To be noted: Mus musculus, read-out: ED50 (the source's name). Type of test: functional, Homo sapiens.
For test [2], the system named is P388. The test can be described thus: Cytotoxicity against leukemia P-388 tumor cells. Format: functional. To be noted: Mus musculus, read-out: ED50 (the source's name).

≈ marks a conversion by molar mass, not a printed value.

Regarding `CC(C)=CC[C@@H]1C(=O)C2=C(OC(C)(C)C=C2)C(=O)[C@@]12OC(=O)C1=C[C@]3(O)C[C@H]4C(C)(C)OC(CC=C(C)C)(C3=O)[C@]14O2` [LATERIFLORONE], the EC50 in test [1] and in test [2] was 5.4 µg/mL (≈ 9.33 µM) each time.
